Laboratory results published in PubChem BioAssay AID1963875 (Molecular Pharmacology Branch, DTP, NCI, 2024).
“And” between values parts separate entries of the source, which are not always exact repeats. Equal values may be shown once.

System: KRAS-mutant PDC complex spheroid viability
Experiment: Anticancer human tumor 186277-243-T-J2-PDC patient-derived colon adenocarcinoma cell line growth inhibition [KRAS2]
Settings: for viability, T/C: stronger effect = lower value
Summary of the method: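 KRAS-mutant tumor cells were grown as spheroids with HUVEC endothelial cells and human MSCs as stroma. Targeted agents were tested alone and with KRAS pathway inhibitors. Doses started at or near clinical Cmax, or 10 microM, descending half-log.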

[1] = curve of first compound, second compound 0.1 µM
[2] = curve of first compound, second compound 0.316 µM
[3] = curve of first compound, second compound 1 µM
[4] = curve of first compound, second compound 3.16 µM
[5] = curve of first compound, second compound 10 µM
[6] = second compound 0.1 µM, first compound 0.0316 µM
[7] = second compound 0.1 µM, first compound 0.1 µM
[8] = second compound 0.1 µM, first compound 0.316 µM
[9] = second compound 0.1 µM, first compound 1 µM
[10] = second compound 0.1 µM, first compound 3.16 µM
[11] = second compound 0.316 µM, first compound 0.0316 µM
[12] = second compound 0.316 µM, first compound 0.1 µM
[13] = second compound 0.316 µM, first compound 0.316 µM
[14] = second compound 0.316 µM, first compound 1 µM
[15] = second compound 0.316 µM, first compound 3.16 µM
[16] = second compound 1 µM, first compound 0.0316 µM
[17] = second compound 1 µM, first compound 0.1 µM
[18] = second compound 1 µM, first compound 0.316 µM
[19] = second compound 1 µM, first compound 1 µM
[20] = second compound 1 µM, first compound 3.16 µM
[21] = second compound 3.16 µM, first compound 0.0316 µM
[22] = second compound 3.16 µM, first compound 0.1 µM
[23] = second compound 3.16 µM, first compound 0.316 µM
[24] = second compound 3.16 µM, first compound 1 µM
[25] = second compound 3.16 µM, first compound 3.16 µM
[26] = second compound 10 µM, first compound 0.0316 µM
[27] = second compound 10 µM, first compound 0.1 µM
[28] = second compound 10 µM, first compound 0.316 µM
[29] = second compound 10 µM, first compound 1 µM
[30] = second compound 10 µM, first compound 3.16 µM
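Throughout, for viability, T/C: viability read after seven days of compound exposure; 100% = DMSO vehicle-treated spheroids so lower means less viable.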

CC1OCC2(CCN(c3cnc(Sc4ccnc(N)c4Cl)c(N)n3)CC2)C1N (configuration not stated) + CNCc1ccccc1-c1csc(C(C)Nc2nc(C)nc3cc(OC)c(OC)cc23)c1
IC50 [1]: > 10000 nM
IC50 [2]: > 10000 nM
IC50 [3]: > 10000 nM
IC50 [4]: 1520 nM
IC50 [5]: < 31.6 nM
viability, T/C [6]: 96.1%
viability, T/C [7]: 104%
viability, T/C [8]: 104%
viability, T/C [9]: 90.9%
viability, T/C [10]: 107%
viability, T/C (second compound 0.1 µM, first compound 10 µM): 105%
viability, T/C [11]: 103%
viability, T/C [12]: 99.8%
viability, T/C [13]: 111%
viability, T/C [14]: 108%
viability, T/C [15]: 104%
viability, T/C (second compound 0.316 µM, first compound 10 µM): 84.2%
viability, T/C [16]: 91.2%
viability, T/C [17]: 104%
viability, T/C [18]: 95%
viability, T/C [19]: 105%
viability, T/C [20]: 93.2%
viability, T/C (second compound 1 µM, first compound 10 µM): 60.5%
viability, T/C [21]: 85.2%
viability, T/C [22]: 72.8%
viability, T/C [23]: 102%
viability, T/C [24]: 71.4%
viability, T/C [25]: 11.4%
viability, T/C (second compound 3.16 µM, first compound 10 µM): 1.07%
viability, T/C [26]: 0.18%
viability, T/C [27]: 0.18%
viability, T/C [28]: 0.17%
viability, T/C [29]: 0.15%
viability, T/C [30]: 0.12%
viability, T/C (second compound 10 µM, first compound 10 µM): 0.15%

CCN1CCN(Cc2ccc(Nc3ncc(F)c(-c4cc(F)c5nc(C)n(C(C)C)c5c4)n3)nc2)CC1
viability, T/C (compound 0.00316 µM): 98.8% [middle of 4 runs]
viability, T/C (compound 0.01 µM): 98.5% [middle of 4 runs]
viability, T/C (compound 0.0316 µM): 107% [middle of 4 runs]
viability, T/C (compound 0.1 µM): 112% (2×) and 136% and 113%
viability, T/C (compound 1 µM): 101% [middle of 4 runs]
IC50 (curve of compound): > 1000 nM

CC1OCC2(CCN(c3cnc(Sc4ccnc(N)c4Cl)c(N)n3)CC2)C1N (configuration not stated)
viability, T/C (compound 0.0316 µM): 107% and 92.4% and 90.5%
viability, T/C (compound 0.1 µM): 102% [middle of 19 runs]
IC50 (compound alone, run of 07/12/2021): > 10000 nM
IC50 (compound alone, run of 07/19/2021): 7400 nM and > 10000 nM
IC50 (compound alone, run of 07/26/2021): > 10000 nM
IC50 (curve of compound): > 10000 nM

CC1COCCN1c1cc(-c2ccnn2C)c2ccnc(-c3ccn[nH]3)c2n1 (configuration not stated) + CC1OCC2(CCN(c3cnc(Sc4ccnc(N)c4Cl)c(N)n3)CC2)C1N
IC50 [1]: 20.7 nM
IC50 [2]: 21.6 nM
IC50 [3]: 21.5 nM
IC50 [4]: 20.7 nM
IC50 [5]: 15.2 nM
viability, T/C (second compound 0.1 µM, first compound 0.01 µM): 82.6%
viability, T/C [6]: 30.9%
viability, T/C [7]: 4.6%
viability, T/C [8]: 3.38%
viability, T/C [9]: 2.91%
viability, T/C [10]: 3.41%
viability, T/C (second compound 0.316 µM, first compound 0.01 µM): 90.3%
viability, T/C [11]: 29.9%
viability, T/C [12]: 4.69%
viability, T/C [13]: 2.62%
viability, T/C [14]: 2.7%
viability, T/C [15]: 3.03%
viability, T/C (second compound 1 µM, first compound 0.01 µM): 113%
viability, T/C [16]: 18.7%
viability, T/C [17]: 3.36%
viability, T/C [18]: 2.01%
viability, T/C [19]: 2.23%
viability, T/C [20]: 2.83%
viability, T/C (second compound 3.16 µM, first compound 0.01 µM): 111%
viability, T/C [21]: 14.6%
viability, T/C [22]: 3.13%
viability, T/C [23]: 1.78%
viability, T/C [24]: 1.9%
viability, T/C [25]: 2.66%
viability, T/C (second compound 10 µM, first compound 0.01 µM): 72.9%
viability, T/C [26]: 10.5%
viability, T/C [27]: 4.95%
viability, T/C [28]: 4.89%
viability, T/C [29]: 2.16%
viability, T/C [30]: 3.22%
